According to PubChem BioAssay AID493130 (Broad Institute, 2011):
Inconclusive results are not listed. Active and inactive are the calls of the source.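 How the source made its calls: active means signal-lowering compounds whose fitted half-maximal concentration is at most ten times their highest tested dose; inconclusive means flat fit between -30 and -70%, or poor fit; inactive means flat within 30%, signal rising, or potency beyond limit.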

The compounds below were run against POS-1 (Caenorhabditis elegans) binding to mex-3 RNA (assay: inhibitors of POS-1/mex-3 RNA binding, dose response, counter-screen for MEX-5 RNA-binding inhibitor project, biochemical, fluorescence polarization, cherry-picked samples, set 2 (AID 493130;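 further: POS-1 as maltose binding protein fusion made in E. coli with FITC RNA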)). Settings: POS-1/mex-3 RNA fluorescence polarization, 1 h; at 10 µM (top of the series).

Row | SMILES | activity change, negative = inhibition
1 | CC1=CC(=C2C(=O)NC(=S)NC2=O)C=C(C(F)(F)F)N1Cc1ccccc1 | inactive
2 | CCN(CC)CCOc1ccc2c(c1)C(=NNC(=O)c1ccccn1)c1cc(OCCN(CC)CC)ccc1-2 | inactive
3 | CCN=c1scc(-c2ccco2)n1/N=C/c1ccc(O)cc1 | inactive
4 | COc1cc2c(cc1O)C[C@H]1NCCc3cc4c(c-2c31)OCO4 | inactive
5 | Cn1c(O)c(N=Nc2ccc(F)cc2)c2ccccc21 | inactive
6 | O=S(=O)(O)c1cc(O)c2c(O)c(N=Nc3cc(Cl)ccc3O)c(S(=O)(=O)O)cc2c1 | inactive
7 | Cc1cc(C)c[n+](-c2nc([O-])sc2C=O)c1 | inactive
8 | COc1cc(/C=N/NC(=O)CNS(=O)(=O)c2ccc(C)cc2)cc(OC)c1OC | inactive
9 | CC(C)OC(=O)c1c2c(n3ccccc13)C(=O)c1ccccc1C2=O | inactive
10 | CCOC(=O)c1ccc(N=Nc2c(C)c(C#N)c(O)[nH]c2=O)cc1 | inactive
11 | Cc1cccc(NC(=O)c2sc3nc4c(c(-c5ccco5)c3c2N)CCC4)c1 | inactive
12 | CCOC(=O)c1c(-c2ccccc2)oc2ccc(OCC(=O)NNC(=O)CCC(=O)O)cc12 | inactive
13 | CC(=O)c1cc(NC(=O)c2ccc(C)cc2)c(=O)oc1C | inactive
14 | Cc1ccc2cc(C#N)c(N3CCCN(C(=O)C4CCCO4)CC3)nc2c1C (stereo unspecified) | inactive
15 | O=C(O)CCCCCN1C(=O)C(O)=C(C(=O)/C=C/c2ccccc2)C1c1ccccc1[N+](=O)[O-] (stereo unspecified) | inactive
16 | N#Cc1cc2c(=O)n3ccccc3nc2n(CCCN2CCOCC2)c1=O | inactive
17 | CC1=CC2=NC(=O)/C(=C\c3cn(C)c4ccccc34)C(=N)N2O1 | inactive
18 | CCOC(=O)CCCc1sc(N)nc1-c1[nH]c(=O)[nH]c1C | inactive
19 | CCc1cccc2cc3c(N)c(C(=O)Nc4ccc(S(=O)(=O)N5CCCC5)cc4)sc3nc12 | inactive
20 | CCOC(=O)C1CSc2[nH]c(=O)sc2C1c1ccccc1 (stereo unspecified) | inactive
21 | CN(C)c1ccc(/C=N/NC(=O)c2cnc3ccccc3c2)cc1 | inactive
22 | COC/C=C/C1=CC2=CC(=O)C(C)(O)C(=O)C2=CO1 (stereo unspecified) | inactive
23 | COc1ccc(CC(=O)NNc2ncnc3c2cnn3C)cc1 | inactive

Row | SMILES | activity change, negative = inhibition
24 | COCCN1CCC(CNCc2cn(-c3cc(C)ccc3C)nc2-c2ccccc2)C1 (stereo unspecified) | inactive
25 | COc1ccc(C(=O)C/C(=C\C(=O)c2ccc(C)cc2)c2ccccc2)cc1 | inactive
26 | CSc1ccc(C(c2c(C(=O)O)[nH]c3ccccc23)c2c(C(=O)O)[nH]c3ccccc23)cc1 | inactive
27 | Cc1cccc(C)c1NC(=O)/C(C#N)=C/c1cccs1 | inactive
28 | Cc1cccc(NC(=O)CN2C(=O)S/C(=C\c3ccc(-c4cccc(C(=O)O)c4C)o3)C2=O)c1 | inactive
29 | CC(=O)NN1C(=O)/C(=C2/Sc3ccccc3N2C)SC1=S | inactive
30 | O=C(Cc1cccs1)Nc1nnc(SCc2ccc(Br)cc2)s1 | inactive
31 | C/C=C(\C)CN1CCC(n2nccc2NC(=O)CCCc2ccccc2)CC1 | inactive
32 | COc1cc2c(cc1N/C=C(\C#N)c1nc(-c3ccc(F)cc3)cs1)oc1ccccc12 | inactive
33 | CCCCN(C(=O)C1=COCCO1)c1c(N)n(Cc2ccccc2)c(=O)[nH]c1=O | inactive
34 | Oc1cc2c(c(Cl)c1O)CCNCC2c1ccccc1 (stereo unspecified) | inactive
35 | CN(C)CC(O)COc1ccc(C(C)(C)c2ccc(OCC(O)CN(C)C)cc2)cc1 (stereo unspecified) | inactive
36 | Cc1ccc(S(=O)(=O)N/N=C/c2ccc(O)c(O)c2)cc1[N+](=O)[O-] | inactive
37 | COc1cccc(-c2cn3nc4c(nc3n2)CCCC4)c1 | inactive
38 | Cc1ccc(NC(=O)CCC(=O)NNC(=S)Nc2ccccc2)c(C)c1 | inactive
39 | CC(C)(C)CC(C)(C)NCC(O)COc1ccc2c(c1)CCC2 (stereo unspecified) | inactive
40 | CC(=O)NN1C(=O)/C(=C/c2ccc(Br)o2)SC1=S | inactive
41 | COc1ccc(C2c3sc(=O)[nH]c3SCC2C(N)=O)cc1 (stereo unspecified) | inactive
42 | O=C(O)c1cc(Oc2ccc(C(F)(F)F)cc2Cl)ccc1[N+](=O)[O-] | inactive
43 | COc1ccccc1-c1cn[nH]c1-c1ccc(O)cc1O | inactive
44 | Cc1nnc(SCc2nc3sc4c(c3c(=O)[nH]2)CCCC4)n(N)c1=O | inactive
45 | COC(=O)/C=C1/S/C(=N/NC(=O)c2ccc(Cl)cc2Cl)NC1=O | inactive
46 | COc1ccc(NC(=S)NNC(=O)C(C)n2nc(C)c([N+](=O)[O-])c2C)cc1 (stereo unspecified) | inactive
